Experimental data: patent US20090030179A1, “ANTIMICROBIAL PEPTIDE AND USE THEREOF” (TOAGOSEI CO., LTD, priority 2005, published 2009)
Residues, ends and D or L forms follow the SMILES beside them.

Key:
[1] = test system: Gram-positive bacteria (Staphylococcus aureus); type: cell-based; settings: for Antimicrobial Activities (MIC) S. aureus: Gram-positive bacteria, 24 h
Experimental: (§1) Regarding the antimicrobial peptides (samples 1 to 12) and the peptide of comparative sample 1 related to the present invention, their antimicrobial activities (minimum inhibitory concentration: MIC) against Gram-negative bacteria (Escherichia coli) and Gram-positive bacteria (Staphylococcus aureus) were determined, as described below, by liquid medium dilution method using a 96-well microplate. […] The prepared liquid broth media containing the peptide at each concentration described above were then loaded onto 96-well microplates in 100-μL aliquots. At the same time, the tested bacteria cultured for 18 hours at 37° C. on an agar plate (“Muller Hinton Agar” manufactured by DIFCO) were collected by scraping with a loop, and then suspended in sterilized physiological saline. 5 μL of bacterial suspension prepared to be equivalent to 2×10^7 cells/mL was inoculated (number of bacteria to be tested: approximately 1×10^6 cells/mL) into each well of the above-described microplate filled with the liquid broth media containing the peptide at each concentration. After inoculation, the microplate was then incubated in an incubator at 37° C., and the presence of bacteria was evaluated based on the turbidity after 24 hours. The minimum drug concentration (polypeptide concentration), at which no increase in bacterial turbidity was detected at the time of measurement, was defined as MIC (minimum inhibitory concentration) (unit: μM) in the present embodiment.

[2] = test system: Gram-negative bacteria (Escherichia coli); type: cell-based; settings: for Antimicrobial Activities (MIC) E. coli: Gram-negative bacteria, 24 h
Experimental: as §1

Compound	Antimicrobial Activities (MIC) S. aureus [1] [µM]	Antimicrobial Activities (MIC) E. coli [2] [µM]	antimicrobial activity (in words), S. aureus ([1]; summary of Table 2)	antimicrobial activity (in words), E. coli ([2]; summary of Table 2)
CC(C)C[C@H](NC(=O)[C@H](CS)NC(=O)[C@H](CCCNC(=N)N)NC(=O)[C@H](CCC(=O)O)NC(=O)[C@H](CCCCN)NC(=O)[C@H](CC(C)C)NC(=O)[C@@H](N)[C@@H](C)O)C(=O)N[C@@H](CCC(N)=O)C(=O)N[C@H](C(=O)N[C@H](C(=O)N[C@@H](CCCNC(=N)N)C(=O)N[C@@H](CO)C(=O)N[C@@H](CC(C)C)C(=O)N[C@H](C(=O)N[C@@H](CCCCN)C(N)=O)C(C)C)C(C)C)C(C)C [Sample 1, TLKERCLQVVRSLVK]	3.13	6.25		
CC[C@H](C)[C@H](NC(=O)[C@H](Cc1c[nH]cn1)NC(=O)[C@H](CCC(N)=O)NC(=O)[C@H](CC(C)C)NC(=O)[C@@H](N)CO)C(=O)N[C@@H](CS)C(=O)N[C@@H](CCCNC(=N)N)C(=O)N[C@H](C(=O)N[C@H](C(=O)N[C@H](C(=O)N[C@@H](CS)C(=O)N[C@@H](CC(N)=O)C(=O)N[C@@H](CS)C(=O)N[C@H](C(=O)N[C@H](C(N)=O)[C@@H](C)O)[C@@H](C)O)[C@@H](C)CC)C(C)C)[C@@H](C)O [Sample 7, SLQHICRTVICNCTT] (H-SLQHICRTVICNCTT-NH2)	50			
CC[C@H](C)[C@H](NC(=O)[C@H](Cc1ccc(O)cc1)NC(=O)[C@H](CCC(N)=O)NC(=O)[C@H](CC(C)C)NC(=O)[C@@H](N)CO)C(=O)N[C@@H](CS)C(=O)N[C@@H](CCCNC(=N)N)C(=O)N[C@@H](C)C(=O)N[C@H](C(=O)N[C@H](C(=O)N[C@@H](CS)C(=O)N[C@@H](CCCNC(=N)N)C(=O)N[C@@H](CS)C(=O)N[C@H](C(=O)N[C@H](C(N)=O)[C@@H](C)O)[C@@H](C)O)[C@@H](C)CC)C(C)C [Sample 8, SLQYICRAVICRCTT] (H-SLQYICRAVICRCTT-NH2)	50			
H-PLAHLCRLRVRKAIG-NH2 [Sample 11, PLAHLCRLRVRKAIG]	12.5			
H-SLKHLCRKALRSFLT-NH2 [Sample 10, SLKHLCRKALRSFLT]	12.5			
H-SLQHICRMSIRRVMS-NH2 [Sample 3, SLQHICRMSIRRVMS]	6.25	12.5		
H-SLQHLCRFRIRQLVR-NH2 [Sample 9, SLQHLCRFRIRQLVR]	12.5			
H-SLQYLCRFVIRQYTR-NH2 [Sample 2, SLQYLCRFVIRQYTR]	6.25	25		
H-SLTHLCRLEIRSSIK-NH2 [Sample 12, SLTHLCRLEIRSSIK]	25			
H-TLHQQCIRVLKNNID-NH2 [Comparative Sample 1, TLHQQCIRVLKNNID, reference compound]	>200	>200	no antimicrobial activity was detected	no antimicrobial activity was detected
H-TLKKRCLQVVRKLVK-NH2 [Sample 5, TLKKRCLQVVRKLVK]	3.13	3.13		
H-TLLSLCRVAVRRALG-NH2 [Sample 4, TLLSLCRVAVRRALG]	1.56	6.25		
H-TLQHLCRKTVNGHLD-NH2 [Sample 6, TLQHLCRKTVNGHLD]	50			
